Reference: publication PMC7857147 (Biochemistry, 2019)

B1: Methanobrevibacter smithii Dph2 (enzyme, UniProt A5UMY5 1-334, looked up)
chain: MSMYNMDLDKVIRKINKKGARTVGLQFPEGLKMQAVKIAKAIESQTPATVIISGDPCFGACDVSDYKMKGSVDLIVHYGHTPLPLKYEVPTLFIEAFSNIDVKKDLEKCLEKLEDYSKIALVTTTQHLHLLNEIKDYLEDNGKEVVLGSSKNTKKGQVLGCNFSSIKNLDAEVYLFIGSGNFHPLGIYLFTKSPVLALDPYNSEIRDISAFADRILRIRFARITKAREAEKWGIIVSSKEGQYRMKLAKEIKKILEDNKMEAYIIMADNINPDILLPYMELDAFVVSACPRIAIDDSQMYKKPLLTPQELEIVLNKRQWENYQLDEILFHERYK

Columns and labels:
PhDph2 = PhDph2 (Pyrococcus horikoshii, UniProt O58832, R289A); experiment: HPLC of SAM cleavage to MTA; format: biochemical; settings: 60 uM SAM, 1 mM dithionite, pH 7.4, 65 °C, 10 min, no EF-2, anaerobic
crystal structure = target: the molecule itself; experiment: crystal structure

Sequence of PhDph2 (O58832 whole entry R289A): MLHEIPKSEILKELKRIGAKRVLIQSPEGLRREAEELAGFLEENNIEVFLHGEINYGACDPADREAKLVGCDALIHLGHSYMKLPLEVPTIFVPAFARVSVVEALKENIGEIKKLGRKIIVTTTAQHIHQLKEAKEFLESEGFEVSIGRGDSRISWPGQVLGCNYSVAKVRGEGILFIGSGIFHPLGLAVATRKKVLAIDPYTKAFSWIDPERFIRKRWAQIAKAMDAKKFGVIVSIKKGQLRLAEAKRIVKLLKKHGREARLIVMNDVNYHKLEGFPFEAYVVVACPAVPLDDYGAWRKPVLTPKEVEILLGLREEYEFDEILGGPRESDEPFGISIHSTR

| Molecule | HPLC of SAM cleavage to MTA (PhDph2) | stoichiometry N (crystal structure) |
| --- | --- | --- |
| C[S+](CC[C@H](N)C(=O)O)C[C@H]1O[C@@H](n2cnc3c(N)ncnc32)[C@H](O)[C@@H]1O (some centres unmarked) [SAM] | the R289A mutant still had SAM cleavage activity | – |
| B1 | – | 2 |
